Several values for one entry are separate records, joined by “and”; a condition that tells them apart may be missing. Equal entries are not always repeated. Toxic doses and inconclusive results are not listed. No stated cut-off is given here; in the data, active means T/C of 150% or more; inactive means T/C below 125%.
System: L1210 leukemia ip in BDF1 mice, survival T/C
Experiment: NCI In Vivo Anticancer Drug Screen. Data for tumor model L1210 Leukemia (intraperitoneal) in B6D2F1 (BDF1) mice
Details: higher = longer survival
In short: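 Tumor cells were implanted, animals were treated, and survival was followed. The result divides the treated measurement by the vehicle-control measurement.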

[1] = endpoint: mean survival time, dose: 200.0 mg/kg/injection, schedule: Q01DX001 (ip), vehicle: saline
[2] = endpoint: mean survival time, dose: 100.0 mg/kg/injection, schedule: Q01DX001 (ip), vehicle: carboxymethylcellulose (CMC)
[3] = endpoint: mean survival time, dose: 100.0 mg/kg/injection, schedule: Q04DX003 (ip), vehicle: saline sonified
[4] = endpoint: mean survival time, dose: 200.0 mg/kg/injection, schedule: Q01DX001 (ip), vehicle: carboxymethylcellulose (CMC)
[5] = endpoint: mean survival time, dose: 100.0 mg/kg/injection, schedule: Q01DX001 (ip), vehicle: saline
[6] = endpoint: mean survival time, dose: 400.0 mg/kg/injection, schedule: Q01DX001 (ip), vehicle: saline

Measured: T/C

Nc1cc2nc3ccccc3sc-2cc1=O
inactive: endpoint: median survival time, dose: 50.0 mg/kg/injection, schedule: Q01DX001 (ip), vehicle: Klucel (hydroxypropylcellulose) (HPC) 100 % of control | endpoint: median survival time, dose: 50.0 mg/kg/injection, schedule: Q01DX001 (oral), vehicle: Klucel (hydroxypropylcellulose) (HPC) 105 % of control | endpoint: median survival time, dose: 50.0 mg/kg/injection, schedule: Q01DX009 (ip), vehicle: Klucel (hydroxypropylcellulose) (HPC) 102 % of control | endpoint: median survival time, dose: 50.0 mg/kg/injection, schedule: Q01DX009 (oral), vehicle: Klucel (hydroxypropylcellulose) (HPC) 114 % of control | endpoint: median survival time, dose: 50.0 mg/kg/injection, schedule: Q04DX003 (ip), vehicle: Klucel (hydroxypropylcellulose) (HPC) 101 % of control | endpoint: median survival time, dose: 100.0 mg/kg/injection, schedule: Q01DX001 (ip), vehicle: Klucel (hydroxypropylcellulose) (HPC) 93 % of control | endpoint: median survival time, dose: 100.0 mg/kg/injection, schedule: Q01DX001 (oral), vehicle: Klucel (hydroxypropylcellulose) (HPC) 105 % of control | endpoint: median survival time, dose: 100.0 mg/kg/injection, schedule: Q01DX009 (ip), vehicle: Klucel (hydroxypropylcellulose) (HPC) 97 % of control | endpoint: median survival time, dose: 100.0 mg/kg/injection, schedule: Q01DX009 (oral), vehicle: Klucel (hydroxypropylcellulose) (HPC) 114 % of control | endpoint: median survival time, dose: 100.0 mg/kg/injection, schedule: Q04DX003 (ip), vehicle: Klucel (hydroxypropylcellulose) (HPC) 94 % of control | endpoint: median survival time, dose: 200.0 mg/kg/injection, schedule: Q01DX001 (ip), vehicle: Klucel (hydroxypropylcellulose) (HPC) 96 % of control | endpoint: median survival time, dose: 200.0 mg/kg/injection, schedule: Q01DX001 (oral), vehicle: Klucel (hydroxypropylcellulose) (HPC) 106 % of control | endpoint: median survival time, dose: 200.0 mg/kg/injection, schedule: Q01DX009 (ip), vehicle: Klucel (hydroxypropylcellulose) (HPC) 102 % of control | endpoint: median survival time, dose: 200.0 mg/kg/injection, schedule: Q01DX009 (oral), vehicle: Klucel (hydroxypropylcellulose) (HPC) 113 % of control | endpoint: median survival time, dose: 200.0 mg/kg/injection, schedule: Q04DX003 (ip), vehicle: Klucel (hydroxypropylcellulose) (HPC) 101 % of control | endpoint: median survival time, dose: 400.0 mg/kg/injection, schedule: Q01DX001 (ip), vehicle: Klucel (hydroxypropylcellulose) (HPC) 96 % of control | endpoint: median survival time, dose: 400.0 mg/kg/injection, schedule: Q01DX001 (oral), vehicle: Klucel (hydroxypropylcellulose) (HPC) 110 % of control | endpoint: median survival time, dose: 400.0 mg/kg/injection, schedule: Q01DX009 (ip), vehicle: Klucel (hydroxypropylcellulose) (HPC) 97 % of control | endpoint: median survival time, dose: 400.0 mg/kg/injection, schedule: Q01DX009 (oral), vehicle: Klucel (hydroxypropylcellulose) (HPC) 112 % of control | endpoint: median survival time, dose: 400.0 mg/kg/injection, schedule: Q04DX003 (ip), vehicle: Klucel (hydroxypropylcellulose) (HPC) 94 % of control

COc1cc([N+](=O)[O-])c2nc(/C=N/NC(N)=S)ccc2c1[N+](=O)[O-]
inactive: [1] 86 % of control

COc1cc(-c2[o+]c3cc(O)cc(O)c3cc2OC2OC(CO)C(O)C(O)C2O)cc(OC)c1O (stereo unspecified)
inactive: [2] 92 % of control | [3] 98 % of control | [4] 101 % of control | endpoint: mean survival time, dose: 400.0 mg/kg/injection, schedule: Q01DX001 (ip), vehicle: carboxymethylcellulose (CMC) 100 % of control

COC(=O)C1CC(=O)C2(C)CCc3c(ccc4cc(OC)ccc34)C12 (stereo unspecified)
inactive: endpoint: mean survival time, dose: 100.0 mg/kg/injection, schedule: Q01DX009 (sc), vehicle: steriod suspending solution 103 % of control | endpoint: mean survival time, dose: 100.0 mg/kg/injection, schedule: Q04DX003 (sc), vehicle: steriod suspending solution 102 % of control | endpoint: mean survival time, dose: 200.0 mg/kg/injection, schedule: Q01DX009 (sc), vehicle: steriod suspending solution 93 % of control | endpoint: mean survival time, dose: 200.0 mg/kg/injection, schedule: Q04DX003 (sc), vehicle: steriod suspending solution 86 % of control | endpoint: mean survival time, dose: 400.0 mg/kg/injection, schedule: Q01DX009 (sc), vehicle: steriod suspending solution 88 % of control | endpoint: mean survival time, dose: 400.0 mg/kg/injection, schedule: Q04DX003 (sc), vehicle: steriod suspending solution 94 % of control

COc1ccc(OC)c(NC(=O)Nc2ccc(N(C)C(C)=O)cc2)c1
inactive: endpoint: mean survival time, dose: 100.0 mg/kg/injection, schedule: Q04DX003 (ip), vehicle: Klucel (hydroxypropylcellulose) (HPC) 90 % of control | endpoint: mean survival time, dose: 200.0 mg/kg/injection, schedule: Q04DX003 (ip), vehicle: Klucel (hydroxypropylcellulose) (HPC) 87 % of control | endpoint: mean survival time, dose: 400.0 mg/kg/injection, schedule: Q04DX003 (ip), vehicle: Klucel (hydroxypropylcellulose) (HPC) 88 % of control

N#Cc1cc2ccncc2c2ccccc12
inactive: endpoint: mean survival time, dose: 100.0 mg/kg/injection, schedule: Q04DX003 (ip), vehicle: saline with Tween-80 100 % of control | endpoint: mean survival time, dose: 200.0 mg/kg/injection, schedule: Q04DX003 (ip), vehicle: saline with Tween-80 96 % of control | endpoint: mean survival time, dose: 400.0 mg/kg/injection, schedule: Q04DX003 (ip), vehicle: saline with Tween-80 97 % of control

CCCC(=O)N1CCC(C)CC1
inactive: endpoint: mean survival time, dose: 50.0 mg/kg/injection, schedule: Q01DX001 (ip), vehicle: saline 103 % of control | endpoint: mean survival time, dose: 50.0 mg/kg/injection, schedule: Q01DX009 (ip), vehicle: saline 97 % of control and 98 % of control | endpoint: mean survival time, dose: 50.0 mg/kg/injection, schedule: Q04DX002 (ip), vehicle: saline 112 % of control | endpoint: mean survival time, dose: 50.0 mg/kg/injection, schedule: Q04DX003 (ip), vehicle: saline 100 % of control | [5] 100 % of control | endpoint: mean survival time, dose: 100.0 mg/kg/injection, schedule: Q01DX009 (ip), vehicle: saline 98 % of control | endpoint: mean survival time, dose: 100.0 mg/kg/injection, schedule: Q04DX002 (ip), vehicle: saline 102 % of control | endpoint: mean survival time, dose: 100.0 mg/kg/injection, schedule: Q04DX003 (ip), vehicle: saline 107 % of control | [1] 103 % of control | endpoint: mean survival time, dose: 200.0 mg/kg/injection, schedule: Q01DX009 (ip), vehicle: saline 94 % of control and 113 % of control | endpoint: mean survival time, dose: 200.0 mg/kg/injection, schedule: Q04DX002 (ip), vehicle: saline 102 % of control | endpoint: mean survival time, dose: 200.0 mg/kg/injection, schedule: Q04DX003 (ip), vehicle: saline 95 % of control

COc1ccc(C(=O)N2CCN(C)CC2)cc1OC
inactive: [5] 101 % of control | [1] 101 % of control | [6] 97 % of control

O=S(=O)(F)c1cc(Cl)ccc1C[P+](c1ccccc1)(c1ccccc1)c1ccccc1
inactive: endpoint: mean survival time, dose: 10.0 mg/kg/injection, schedule: Q04DX003 (ip), vehicle: saline 97 % of control | endpoint: mean survival time, dose: 20.0 mg/kg/injection, schedule: Q04DX003 (ip), vehicle: saline 89 % of control

O=C(CF)N(O)c1ccc(/C=C/c2ccccc2)cc1
inactive: [2] 101 % of control | [4] 113 % of control

COC(=O)/C=C(/Oc1cccc([N+](=O)[O-])c1)C(=O)OC
inactive: endpoint: mean survival time, dose: 75.0 mg/kg/injection, schedule: Q04DX003 (ip), vehicle: saline 105 % of control | endpoint: mean survival time, dose: 150.0 mg/kg/injection, schedule: Q04DX003 (ip), vehicle: saline 96 % of control | endpoint: mean survival time, dose: 300.0 mg/kg/injection, schedule: Q04DX003 (ip), vehicle: saline 98 % of control

CC(=C1C2CCC1C(C(=O)N(C)C)C2C(=O)N(C)C)C(Cl)(Cl)Cl (stereo unspecified)
inactive: endpoint: mean survival time, dose: 100.0 mg/kg/injection, schedule: Q04DX002 (ip), vehicle: Klucel (hydroxypropylcellulose) (HPC) 94 % of control | endpoint: mean survival time, dose: 200.0 mg/kg/injection, schedule: Q04DX002 (ip), vehicle: Klucel (hydroxypropylcellulose) (HPC) 110 % of control | endpoint: mean survival time, dose: 400.0 mg/kg/injection, schedule: Q04DX002 (ip), vehicle: Klucel (hydroxypropylcellulose) (HPC) 90 % of control

O=[N+]([O-])c1ccc(N2CCN=N2)cc1
inactive: endpoint: mean survival time, dose: 8.0 mg/kg/injection, schedule: Q01DX015 (ip), vehicle: saline 107 % of control | endpoint: mean survival time, dose: 16.0 mg/kg/injection, schedule: Q01DX015 (ip), vehicle: saline 110 % of control | endpoint: mean survival time, dose: 32.0 mg/kg/injection, schedule: Q01DX015 (ip), vehicle: saline 113 % of control | endpoint: mean survival time, dose: 64.0 mg/kg/injection, schedule: Q01DX015 (ip), vehicle: saline 116 % of control | [5] 103 % of control | [3] 104 % of control | [6] 111 % of control

COc1cc(SSc2ccc(N)c(OC)c2)ccc1N
inactive: endpoint: mean survival time, dose: 75.0 mg/kg/injection, schedule: Q01DX001 (ip), vehicle: carboxymethylcellulose (CMC) 105 % of control | endpoint: mean survival time, dose: 150.0 mg/kg/injection, schedule: Q01DX001 (ip), vehicle: carboxymethylcellulose (CMC) 88 % of control

Reference: PubChem BioAssay AID248 (DTP/NCI, 2004)
